From patent US7294637B2 (Sepracor, Inc., priority 2000, dated 2007)
Read-outs that look alike come from different tables or passages of the source.

Columns and labels:
[1] = test system: Sprague-Dawley rats; experiment: Spontaneous locomotor activity in rats, 1-24 hours (Example 223); format: in vivo, rat; conditions: 10 mg/kg i.p.
Method: The effect of 124 and 126 on spontaneous locomotor activity in rats was determined according to the procedures outlined by Silverman et al. (Motor Activity. In “Animal behavior in the laboratory”, Chapman and Hall eds, London, p. 79-92, 1978) and Boissier et al. (Arch. Int. Pharmacodyn. 1965, 158, 212. ) Test items and test item vehicles were administered to male Sprague-Dawley rats (n=10) as a single i.p. dose. One, three, five, eight and twenty four hours following administration, rats were placed in a plastic box 30×30 cm in a room with low light intensity (maximum 50 lux). Locomotor activity was determined during 20 minute periods using video image analyzers. Images recorded with video cameras were digitalized and displacements of the center of gravity of the digital image spot were tracked and analyzed. When the speed of displacement of the center of gravity of the spot was below 4.26 cm/sec, the movement was considered as inactivity. When this speed was between 4.26 and 6.75 cm/sec, the movement was considered as a small movement. When this speed was above 6.75 cm/sec, the movement was considered as a large movement. The number of occurrences, distance and duration of fast and slow movements, number of occurrences and duration of periods of inactivity and number of rears were measured.

[2] = test system: Sprague-Dawley rats; experiment: Spontaneous locomotor activity in rats (Example 141); format: in vivo, rat; conditions: 10 mg/kg i.p.
Method: The effect of 124 and 126 on spontaneous locomotor activity in rats was determined according to the procedures outlined by Silverman et al. (Motor Activity. In “Animal behavior in the laboratory”, Chapman and Hall eds, London, p. 79-92, 1978) and Boissier et al. (Arch. Int. Pharmacodyn. 1965, 158, 212. )
Test items and test item vehicles were administered to male Sprague-Dawley rats (n=10) as a single i.p. dose (vehicle A=10% hydroxypropyl-β-cyclodextrin in water; vehicle B=4:1 5% aqueous dextrose:PEG 400). […] Locomotor activity was determined during 20 minute periods using video image analyzers. Images recorded with video cameras were digitalized and displacements of the center of gravity of the digital image spot were tracked and analyzed. When the speed of displacement of the center of gravity of the spot was below 4.26 cm/sec, the movement was considered as inactivity. When this speed was between 4.26 and 6.75 cm/sec, the movement was considered as a small movement. When this speed was above 6.75 cm/sec, the movement was considered as a large movement. The number of occurrences, distance and duration of fast and slow movements, number of occurrences and duration of periods of inactivity and number of rears were measured.

[3] = cited from earlier work
[4] = baboon, cited from earlier work
[5] = target: T1, DAT (Homo sapiens, UniProt Q01959); conditions: dosed orally, 60 mg; cited from earlier work
T1 sequence (Q01959 whole entry): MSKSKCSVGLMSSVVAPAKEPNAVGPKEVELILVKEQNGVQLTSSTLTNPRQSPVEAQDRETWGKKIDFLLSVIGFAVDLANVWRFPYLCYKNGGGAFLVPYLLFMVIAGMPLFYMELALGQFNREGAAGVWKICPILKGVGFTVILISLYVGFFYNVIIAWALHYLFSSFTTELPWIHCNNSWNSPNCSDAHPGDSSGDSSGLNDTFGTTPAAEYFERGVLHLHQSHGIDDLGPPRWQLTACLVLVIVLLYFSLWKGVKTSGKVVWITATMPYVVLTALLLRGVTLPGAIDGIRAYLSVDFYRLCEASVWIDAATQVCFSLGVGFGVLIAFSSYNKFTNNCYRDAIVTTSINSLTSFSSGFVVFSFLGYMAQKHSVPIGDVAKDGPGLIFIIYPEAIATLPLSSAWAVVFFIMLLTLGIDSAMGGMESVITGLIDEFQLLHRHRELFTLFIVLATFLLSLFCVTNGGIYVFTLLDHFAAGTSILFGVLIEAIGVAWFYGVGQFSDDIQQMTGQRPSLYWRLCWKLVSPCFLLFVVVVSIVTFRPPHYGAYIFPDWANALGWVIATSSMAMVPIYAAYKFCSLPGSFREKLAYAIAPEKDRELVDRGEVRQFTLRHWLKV

[6] = target: norepinephrine transporter (Homo sapiens, UniProt P23975); experiment: NE uptake: displacement of norephinephrine ligands in vitro (methods of Galli et al.); format: binding; conditions: NE Uptake, Uptake Profile (IC50, nM)
Sequence of norepinephrine transporter (P23975 whole entry): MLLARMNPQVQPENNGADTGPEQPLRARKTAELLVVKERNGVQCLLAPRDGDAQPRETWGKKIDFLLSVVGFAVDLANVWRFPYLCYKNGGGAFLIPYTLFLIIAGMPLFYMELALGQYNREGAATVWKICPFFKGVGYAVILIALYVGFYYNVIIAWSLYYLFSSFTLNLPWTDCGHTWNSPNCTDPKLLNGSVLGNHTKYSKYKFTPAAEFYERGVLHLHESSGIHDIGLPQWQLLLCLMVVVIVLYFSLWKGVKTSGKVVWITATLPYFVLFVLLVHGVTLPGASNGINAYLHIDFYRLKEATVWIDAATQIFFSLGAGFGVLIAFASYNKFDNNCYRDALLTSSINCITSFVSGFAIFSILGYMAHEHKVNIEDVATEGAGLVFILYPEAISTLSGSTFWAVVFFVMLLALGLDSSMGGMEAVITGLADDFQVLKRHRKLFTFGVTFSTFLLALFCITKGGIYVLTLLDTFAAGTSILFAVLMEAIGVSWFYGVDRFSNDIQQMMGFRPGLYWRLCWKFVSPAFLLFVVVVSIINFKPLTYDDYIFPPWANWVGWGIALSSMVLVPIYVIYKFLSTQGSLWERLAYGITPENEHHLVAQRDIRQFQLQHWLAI

[7] = test system: ICR derived mice; experiment: In vivo evaluation of 4: acute toxic symptoms, autonomic effects and mortality after i.v. dosing; design: species or system mouse; conditions: i.v., 5, 10, 20, and 30 mk/kg
Method: Compound 4 was administered i.v. to a group of 3 ICR derived male or female mice (˜22 gms) and observed for the presence of acute toxic symptoms (mortality, convulsions, tremors, muscle relaxation, sedation, etc.) and autonomic effects (diarrhea, salvation, lacrimation, vasodilation, piloerection, etc) during first 5 min (i.v).
Compound 4 was administered at doses of 5, 10, 20, and 30 mk/kg. […] After monitoring daily for 3 days, no mortality was observed.

[8] = target: T1, DAT; experiment: cell-based; design: expressed in transfected cells; conditions: hDAT cell line; read-out: DA Uptake, Functional Assays (antagonism, EC50)
[9] = target: dopamine transporter (Homo sapiens, UniProt Q01959); experiment: DA uptake: displacement of dopamine ligands in vitro (methods of Gu et al.); conditions: DA Uptake, Uptake Profile (IC50, nM), displacement of dopamine ligands in vitro
Sequence of dopamine transporter (Q01959 whole entry): as the sequence (Q01959 whole entry) above

[10] = target: serotonin transporter (Homo sapiens, UniProt P31645); experiment: 5-HT uptake: displacement of serotonin ligands in vitro (methods of Gu et al.); format: binding; conditions: 5-HT Uptake, Uptake Profile (IC50, nM)
Sequence of serotonin transporter (P31645 whole entry): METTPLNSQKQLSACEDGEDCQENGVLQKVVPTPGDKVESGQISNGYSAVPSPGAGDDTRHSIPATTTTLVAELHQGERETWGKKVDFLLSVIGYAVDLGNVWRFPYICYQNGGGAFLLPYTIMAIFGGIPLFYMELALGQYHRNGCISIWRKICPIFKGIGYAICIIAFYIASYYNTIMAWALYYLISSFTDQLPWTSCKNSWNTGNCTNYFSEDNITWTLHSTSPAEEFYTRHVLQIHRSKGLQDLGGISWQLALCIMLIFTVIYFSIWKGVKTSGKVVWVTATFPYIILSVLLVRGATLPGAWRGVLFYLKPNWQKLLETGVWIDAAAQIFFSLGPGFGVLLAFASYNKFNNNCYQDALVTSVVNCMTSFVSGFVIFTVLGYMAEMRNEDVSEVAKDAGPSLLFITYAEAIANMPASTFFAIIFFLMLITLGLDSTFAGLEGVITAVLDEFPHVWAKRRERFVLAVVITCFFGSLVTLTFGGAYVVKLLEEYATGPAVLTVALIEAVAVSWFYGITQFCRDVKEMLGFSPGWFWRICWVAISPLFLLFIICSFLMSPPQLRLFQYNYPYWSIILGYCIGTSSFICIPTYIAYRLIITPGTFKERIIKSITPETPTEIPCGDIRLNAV

[11] = rodents, ex vivo binding; cited from earlier work
[12] = test system: rats and monkeys; conditions: monkeys; cited from earlier work

## COC(=O)C(c1ccccc1)C1CCCCN1 (stereo not shown) [methylphenidate, reference compound]
[1]; 1 hour
  Large Movement Occurrences: 958 ± 118 ^
  Small Movement Occurrences: 1595 ± 83 ^
[1]; 3 hours
  Large Movement Occurrences: 504 ± 114 ^
  Small Movement Occurrences: 1072 ± 122^
[1]; 5 hours
  Large Movement Occurrences: 196 ± 62^
  Small Movement Occurrences: 612 ± 108 ^
[1]; 8 hours
  Large Movement Occurrences: 71 ± 20 ^
  Small Movement Occurrences: 358 ± 65^
[1]; 24 hours
  Large Movement Occurrences: 335 ± 68^
  Small Movement Occurrences: 790 ± 81^
[2]; 20 min
  Large Movement Occurrences: 974.3 ± 125.5 ^
  Small Movement Occurrences: 1537.0 ± 97.3 ^
[2]; 60 min
  Large Movement Occurrences: 423.9 ± 75.9
  Small Movement Occurrences: 992.0 ± 126.7 ^
[2]; 120 min
  Large Movement Occurrences: 191.8 ± 37.1 ^
  Small Movement Occurrences: 555.0 ± 87.0
[3]; dosed intravenously
  time of peak uptake into the brain: 8 to 10 min
[3]; intravenous
  half-life in the brain: 1.5 h
[4]; intravenous
  time to peak concentration in brain: 8 to 10 min
[4]; orally dosed
  time to peak concentration in brain: 60 min
[5]
  DAT occupancy: 70-72%
  “high” in subjects: no “high” was observed

## Clc1ccc(C2(CN3CCCC(COc4ccccc4)C3)CCC2)cc1 (stereo not shown) [compound 4]
[6]
  IC50: > 1000 nM
[7]
  change in autonomic signs of behavior: No obvious change
[7]; monitored daily for 3 days
  mortality: no mortality
[8]
  EC50: < 1000 nM
[9]
  IC50: < 1000 nM
[10]
  IC50: > 1000 nM

## CCC(=O)[C@H]1[C@@H](c2ccc(C)cc2)C[C@@H]2CC[C@H]1N2C [PPT, 2β-propanoyl-3β-(4-tolyl)-tropane]
[11]
  time of onset after administration: ca. 30 minutes
[12]
  addictiveness: not addictive
  decrease of self-administered cocaine intake: 70%
